# From article PMC3629565, “Sphingolipid synthesis and scavenging in the intracellular apicomplexan parasite, Toxoplasma gondii” (Molecular and Biochemical Parasitology, 2013)
# Target: T1, TgSLS (Toxoplasma gondii, UniProt A0A2U9EWT7)
# T1 construct: parasites elsewhere RH, locus tag of ME49), pRS426MET25 in S. cerevisiae YPH499-HIS-GAL-AUR1, CHAPS-washed microsomes; no tag mentioned
# T1 sequence (A0A2U9EWT7 1-427): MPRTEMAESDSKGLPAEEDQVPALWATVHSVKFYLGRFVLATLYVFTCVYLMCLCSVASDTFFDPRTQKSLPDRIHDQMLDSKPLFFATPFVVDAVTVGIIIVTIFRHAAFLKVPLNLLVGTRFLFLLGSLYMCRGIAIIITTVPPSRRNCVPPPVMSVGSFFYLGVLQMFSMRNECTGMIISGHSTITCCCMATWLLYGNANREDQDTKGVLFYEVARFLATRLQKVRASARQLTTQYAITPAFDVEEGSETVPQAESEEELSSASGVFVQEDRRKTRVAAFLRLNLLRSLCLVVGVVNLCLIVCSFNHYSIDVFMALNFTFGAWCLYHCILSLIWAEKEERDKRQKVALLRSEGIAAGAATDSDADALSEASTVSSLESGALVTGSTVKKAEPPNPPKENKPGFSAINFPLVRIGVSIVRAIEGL
# Assay: IPC formation by CHAPS-washed yeast microsomes, HPTLC fluorescence
# Type: biochemical
# Details: acceptor substrate at 5 μM; donor 1 mM bovine liver phosphatidylinositol; 10 mM EDTA, 6 mg/ml BSA, 30 °C, 60 min; labelled compound
structure (smiles),measurement,value
CCCCCCCCCCCCC/C=C/[C@@H](O)[C@H](CO)NC(=O)CCCCCNc1ccc([N+](=O)[O-])c2nonc12 [NBD C6-ceramide],"IPC formation by CHAPS-washed yeast microsomes, HPTLC fluorescence",reaction of CHAPS-washed TgSLS extract with acceptor substrate NBD-C6-ceramide
